These results are taken from ChEMBL document CHEMBL1201862, “PubChem BioAssay data set” (2004).

SMILES strings stand for the structures.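 These data come from cells grown in 96-well plates and exposed to compound for 48 hours at five concentrations. At the GI50, growth is halved.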 Calls of active or inactive are those of the source. Rule as the data show it: active = GI50 up to about 1.1 µM and inactive = higher. Where only a bound is given, the exact number is not on record here.

Among the test systems are Malme-3M; OVCAR-3; NCI-H522; KM12; MCF7; SF-295; Hs-578T; EKVX; 786-0; TK-10; RXF 393; MDA-N; UACC-257; SN12C; MOLT-4; UO-31; LOX IMVI; SK-OV-3; COLO 205.
What all share (assay): growth of human tumour cells (NCI), 48 h

As for `CCCCCc1nnc(NS(=O)(=O)c2ccc(NC(=O)OCC(C)C)cc2)s1`, the GI50 with Malme-3M is 34.9 µM (inactive); in the experiment with OVCAR-3, 30.3 µM (inactive); with NCI-H522, 24.5 µM (inactive); in the experiment with KM12, 36.1 µM (inactive); with MCF7, 37.8 µM (inactive); in the experiment on SF-295 it was 37.5 µM (inactive). Besides, the GI50 in the experiment on Hs-578T was 51.2 µM (inactive); in the experiment with EKVX, 33.3 µM (inactive); with 786-0, 40.8 µM (inactive); with TK-10, 36.9 µM (inactive); in the experiment on RXF 393, 74.8 µM (inactive); with MDA-N, 32.3 µM (inactive). Moreover, the GI50 in the experiment on UACC-257 was 79.6 µM (inactive); with SN12C, 33.9 µM (inactive); in the experiment with MOLT-4 it was 20.1 µM (inactive); in the experiment with UO-31, 33.4 µM (inactive); with LOX IMVI, 37.2 µM (inactive); in the experiment on SK-OV-3, 31.5 µM (inactive). In the experiment with COLO 205, the GI50 was 18.5 µM (inactive).

On to `C(=N\c1nc2cc3sc(/N=C/c4ccccc4)nc3cc2s1)/c1ccccc1`, for which the GI50 in the experiment on Malme-3M was > 65.3 µM (inactive); in the experiment with OVCAR-3 it was > 85.3 µM (inactive); in the experiment with NCI-H522, 17.1 µM (inactive); with KM12, > 100 µM (inactive); with MCF7 it was 20.8 µM (inactive); with SF-295 it was > 100 µM (inactive). For the same compound, the GI50 in the experiment on Hs-578T was > 45.9 µM (inactive); with EKVX it was 37.7 µM (inactive); in the experiment with 786-0, > 100 µM (inactive); in the experiment with TK-10, > 50.6 µM (inactive); in the experiment with RXF 393 it was > 100 µM (inactive); with MDA-N it was > 100 µM (inactive). The GI50 is > 100 µM (inactive) in the experiment with UACC-257; 69.3 µM (inactive) in the experiment on SN12C; 9.75 µM (inactive) in the experiment on MOLT-4; 62.5 µM (inactive) with UO-31; 38.9 µM (inactive) in the experiment on LOX IMVI; > 100 µM (inactive) with SK-OV-3. In addition, the GI50 with COLO 205 was 4.01 µM (inactive).

`CC(=O)OCC(OC(C)=O)C(OC(C)=O)C(OC(C)=O)C(C=NN(C(C)=O)S(=O)(=O)c1ccc(/C=C2\NC(=O)NC2=O)cc1)OC(C)=O` (stereo not given): the GI50 in the experiment on Malme-3M, in the experiment on OVCAR-3, in the experiment with NCI-H522, with KM12, in the experiment with MCF7 and in the experiment on SF-295 was > 100 µM (inactive) each time. The GI50 in the experiment on Hs-578T, with EKVX, in the experiment on 786-0, in the experiment with TK-10, with RXF 393 and in the experiment with MDA-N was > 100 µM (inactive) in each case. For the same compound, the GI50 in the experiment with UACC-257, with SN12C, in the experiment on MOLT-4, in the experiment on UO-31, in the experiment with LOX IMVI and with SK-OV-3 was > 100 µM (inactive) each time. In the experiment with COLO 205, the GI50 was > 100 µM (inactive).

In the case of `Cc1cc(N(CCC#N)CCC#N)ccc1/C=N/NC(=O)c1ccccc1`, the GI50 in the experiment with Malme-3M is 33.2 µM (inactive); in the experiment with OVCAR-3 it was 15 µM (inactive); with NCI-H522 it was 8.34 µM (inactive); in the experiment on KM12, 3.54 µM (inactive); in the experiment on MCF7, 7.82 µM (inactive); with SF-295, 12.9 µM (inactive). Besides, the GI50 in the experiment with Hs-578T is 15.4 µM (inactive); in the experiment on EKVX, 48.9 µM (inactive); in the experiment on 786-0 it was 31.6 µM (inactive); with TK-10, 48.3 µM (inactive); with RXF 393, 28.4 µM (inactive); in the experiment on MDA-N, 2.86 µM (inactive). Further, the GI50 with UACC-257 was > 48.9 µM (inactive); with SN12C, 28.5 µM (inactive); with MOLT-4 it was 24.3 µM (inactive); in the experiment with UO-31, > 62.1 µM (inactive); in the experiment with LOX IMVI it was 8.02 µM (inactive); with SK-OV-3, 18.5 µM (inactive). Also, the GI50 in the experiment on COLO 205 is 15.7 µM (inactive).

Regarding `Cc1ccc(NC(=O)CC(=O)N2N=C(N(C)c3ccccc3)CC2c2ccccc2)cc1` (stereo not given), the GI50 in the experiment with Malme-3M, with OVCAR-3, in the experiment on NCI-H522, with KM12, in the experiment on MCF7 and in the experiment on SF-295 was > 100 µM (inactive) throughout. The GI50 with Hs-578T, with EKVX, in the experiment on 786-0, in the experiment with TK-10, with RXF 393 and with MDA-N was > 100 µM (inactive) throughout. Also, the GI50 with UACC-257, with SN12C, with MOLT-4, in the experiment on UO-31, with LOX IMVI and in the experiment on SK-OV-3 was > 100 µM (inactive) throughout. Besides, in the experiment on COLO 205, the GI50 is > 100 µM (inactive).

With `S=C1CSc2c(cnc3ccccc23)N1`, the GI50 in the experiment with Malme-3M is > 100 µM (inactive); in the experiment on OVCAR-3, > 100 µM (inactive); in the experiment on NCI-H522, > 100 µM (inactive); in the experiment on KM12 it was > 100 µM (inactive); with MCF7, > 100 µM (inactive); with SF-295, 52.2 µM (inactive). In addition, the GI50 in the experiment on Hs-578T is 20 µM (inactive); with EKVX, 76.4 µM (inactive); in the experiment on 786-0 it was > 100 µM (inactive); with TK-10, 35.1 µM (inactive); in the experiment on RXF 393 it was 20 µM (inactive); with MDA-N, > 100 µM (inactive). For the same compound, the GI50 in the experiment on UACC-257 was > 100 µM (inactive); in the experiment with SN12C, > 100 µM (inactive); in the experiment with MOLT-4, > 100 µM (inactive); in the experiment on UO-31, 65.6 µM (inactive); in the experiment with LOX IMVI, > 100 µM (inactive); in the experiment on SK-OV-3, > 100 µM (inactive). Moreover, the GI50 with COLO 205 is > 100 µM (inactive).

Regarding `C=CC1(c2ccc(Cl)c(Cl)c2)OCCO1`, the GI50 in the experiment with Malme-3M, in the experiment on OVCAR-3, in the experiment with NCI-H522, in the experiment with KM12, with MCF7 and in the experiment on SF-295 was > 100 µM (inactive) in each case. Besides, the GI50 was 40.8 µM (inactive) with Hs-578T; > 100 µM (inactive) in the experiment on EKVX; > 100 µM (inactive) in the experiment with 786-0; > 100 µM (inactive) in the experiment on TK-10; > 100 µM (inactive) in the experiment with RXF 393; > 100 µM (inactive) with MDA-N. Also, the GI50 in the experiment with UACC-257, in the experiment with SN12C, in the experiment with MOLT-4, in the experiment with UO-31, in the experiment on LOX IMVI and in the experiment with SK-OV-3 was > 100 µM (inactive) each time. Further, in the experiment with COLO 205, the GI50 is > 100 µM (inactive).

As to `Cc1cc(S(=O)(=O)NC2=Nc3ccccc3C(c3ccccc3)N2)c(S)cc1Cl` (stereo not given), the GI50 in the experiment on Malme-3M is > 100 µM (inactive); with OVCAR-3, > 100 µM (inactive); in the experiment on NCI-H522 it was > 100 µM (inactive); with KM12, 58.6 µM (inactive); with MCF7, > 100 µM (inactive); in the experiment with SF-295, 31.5 µM (inactive). Moreover, the GI50 is > 100 µM (inactive) in the experiment with Hs-578T; > 100 µM (inactive) with EKVX; 8.2 µM (inactive) in the experiment on 786-0; > 100 µM (inactive) with TK-10; 48.2 µM (inactive) in the experiment with RXF 393; 78 µM (inactive) in the experiment with MDA-N. The GI50 in the experiment with UACC-257 was > 100 µM (inactive); in the experiment on SN12C, 50.7 µM (inactive); in the experiment with MOLT-4 it was 81.8 µM (inactive); with UO-31, 24.9 µM (inactive); with LOX IMVI, 39.3 µM (inactive); with SK-OV-3, > 100 µM (inactive). Further, the GI50 with COLO 205 was > 100 µM (inactive).

Consider `Cc1c(O)nc(/C=C/C(=O)O)nc1C(=O)O`, for which the GI50 in the experiment with Malme-3M, with OVCAR-3, with NCI-H522, in the experiment on KM12, with MCF7 and in the experiment with SF-295 was > 100 µM (inactive) each time. Besides, the GI50 in the experiment with Hs-578T, in the experiment on EKVX, with 786-0, with TK-10, with RXF 393 and in the experiment on MDA-N was > 100 µM (inactive) throughout. The GI50 with UACC-257, with SN12C, in the experiment with MOLT-4, in the experiment on UO-31, in the experiment on LOX IMVI and with SK-OV-3 was > 100 µM (inactive) throughout. The GI50 in the experiment on COLO 205 is > 100 µM (inactive).

With `CCN(CC)C(=S)SS(=O)(=O)c1ccccc1C(=O)O`, the GI50 was > 96.4 µM (inactive) with Malme-3M; > 100 µM (inactive) with OVCAR-3; 2.67 µM (inactive) in the experiment on NCI-H522; > 100 µM (inactive) with KM12; 1.03 µM (active) with MCF7; > 88.5 µM (inactive) with SF-295. Besides, the GI50 in the experiment on Hs-578T is > 100 µM (inactive); with EKVX, > 100 µM (inactive); with 786-0, > 100 µM (inactive); in the experiment with TK-10, > 100 µM (inactive); in the experiment on RXF 393, > 70.3 µM (inactive); in the experiment on MDA-N it was > 100 µM (inactive). For the same compound, the GI50 with UACC-257 was > 100 µM (inactive); in the experiment with SN12C, > 94.8 µM (inactive); in the experiment on MOLT-4 it was 0.933 µM (active); with UO-31 it was > 94 µM (inactive); in the experiment on LOX IMVI, > 100 µM (inactive); in the experiment with SK-OV-3 it was > 100 µM (inactive). The GI50 with COLO 205 is > 100 µM (inactive).
